Like-named read-outs stand apart in the source and are kept apart here.
Assays:
pigweed, palmer [1] = assay: Test A preemergence; format: in vivo, Amaranthus palmeri; conditions: Amaranthus palmeri, pre-emergence, 240 h, read-out: Plant response rating, Pigweed, Palmer; for pest or weed control at 125 g/ha: 125 g ai/ha; for pest or weed control at 500 g/ha: 500 g ai/ha
Outline: (§1)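 Loam/sand soil; pre-em directed soil spray at planting, post-em spray at 1–2 leaf (2–10 cm). Compound in non-phytotoxic solvent + surfactant. Greenhouse 10 d; visual injury vs untreated, 0 = no effect, 100 = complete control.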

blackgrass [2] = assay: Test A postemergence; format: in vivo, Alopecurus myosuroides; conditions: Alopecurus myosuroides, post-emergence, 240 h; for pest or weed control at 125 g/ha: 125 g ai/ha; for pest or weed control at 500 g/ha: 500 g ai/ha
Outline: as §1

ducksalad = assay: Test B flooded paddy test; format: in vivo, Heteranthera limosa; conditions: Heteranthera limosa, 312 h, 250 g ai/ha, Flood, 13 days, 0 to 100 scale (0 no effect, 100 complete control); read-out: Plant response rating, Ducksalad
Outline: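 Compound is introduced into paddy water covering soil by 3 cm, treating plants that have reached two leaves. Pots are kept flooded at that depth under greenhouse conditions. Assessment at 13 days gives a 0–100 visual control score.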

goosegrass = assay: Test A postemergence; format: in vivo, Eleusine indica; conditions: Eleusine indica, post-emergence, 240 h, postemergence, 10 days, 0 to 100 scale (0 no effect, 100 complete control); for pest or weed control at 125 g/ha: 125 g ai/ha; for pest or weed control at 500 g/ha: 500 g ai/ha
Outline: as §1

ryegrass, Italian = assay: Test A preemergence; format: in vivo, Lolium multiflorum; conditions: Lolium multiflorum, pre-emergence, 240 h, read-out: Plant response rating, Ryegrass, Italian; for pest or weed control at 125 g/ha: 125 g ai/ha; for pest or weed control at 500 g/ha: 500 g ai/ha
Outline: as §1

soybean = assay: Test A preemergence; format: in vivo, Glycine max; conditions: Glycine max, pre-emergence, 240 h, read-out: Plant response rating, Soybean; for plant injury at 125 g/ha: 125 g ai/ha; for plant injury at 500 g/ha: 500 g ai/ha
Outline: as §1

corn = assay: Test A postemergence; format: in vivo, Zea mays; conditions: Zea mays, post-emergence, 240 h, postemergence, 10 days, 0 to 100 scale (0 no effect, 100 complete control); for plant injury at 125 g/ha: read-out: Corn plant response rating; for Corn plant response rating (crop injury, 0 = no effect, 100 = complete kill) at 500 g/ha: 500 g ai/ha
Outline: as §1

ragweed [3] = assay: Test A preemergence; format: in vivo, Ambrosia artemisiifolia; conditions: Ambrosia artemisiifolia, pre-emergence, 240 h, read-out: Plant response rating, Ragweed; for pest or weed control at 125 g/ha: 125 g ai/ha; for pest or weed control at 500 g/ha: 500 g ai/ha
Outline: as §1

oat, wild = assay: Test A postemergence; format: in vivo, Avena fatua; conditions: Avena fatua, post-emergence, 240 h, postemergence, 10 days, 0 to 100 scale (0 no effect, 100 complete control); for pest or weed control at 125 g/ha: 125 g ai/ha, read-out: Oat, Wild plant response rating; for pest or weed control at 500 g/ha: 500 g ai/ha, visual injury, read-out: Plant response rating, Oat, Wild
Outline: as §1

wheat = assay: Test A postemergence; format: in vivo, Triticum aestivum; conditions: Triticum aestivum, post-emergence, 240 h, postemergence, 10 days, 0 to 100 scale (0 no effect, 100 complete control); for plant injury at 125 g/ha: 125 g ai/ha, read-out: Wheat plant response rating; for plant injury at 500 g/ha: 500 g ai/ha, visual injury, read-out: Plant response rating, Wheat
Outline: as §1

foxtail, giant = assay: Test A postemergence; format: in vivo, Setaria faberi; conditions: Setaria faberi, post-emergence, 240 h, postemergence, 10 days, 0 to 100 scale (0 no effect, 100 complete control); for pest or weed control at 125 g/ha: 125 g ai/ha; for pest or weed control at 500 g/ha: 500 g ai/ha
Outline: as §1

ragweed [4] = assay: Test A postemergence; format: in vivo, Ambrosia artemisiifolia; conditions: Ambrosia artemisiifolia, post-emergence, 240 h, postemergence, 10 days, 0 to 100 scale (0 no effect, 100 complete control); for pest or weed control at 125 g/ha: 125 g ai/ha, read-out: Ragweed plant response rating; for pest or weed control at 500 g/ha: 500 g ai/ha, visual injury, read-out: Plant response rating, Ragweed
Outline: as §1

pigweed, palmer [5] = assay: Test A postemergence; format: in vivo, Amaranthus palmeri; conditions: Amaranthus palmeri, post-emergence, 240 h, postemergence, 10 days, 0 to 100 scale (0 no effect, 100 complete control); for pest or weed control at 125 g/ha: 125 g ai/ha, read-out: Pigweed, Palmer plant response rating; for pest or weed control at 500 g/ha: 500 g ai/ha, visual injury, read-out: Plant response rating, Pigweed, Palmer
Outline: as §1

blackgrass [6] = assay: Test A preemergence; format: in vivo, Alopecurus myosuroides; conditions: Alopecurus myosuroides, pre-emergence, 240 h, read-out: Plant response rating, Blackgrass; for pest or weed control at 125 g/ha: 125 g ai/ha; for pest or weed control at 500 g/ha: 500 g ai/ha
Outline: as §1

[7] = visual injury after 10 days, 0 to 100 scale, 0 is no effect, 100 is complete control
[8] = postemergence, 10 days, 0 to 100 scale (0 no effect, 100 complete control), read-out: Blackgrass plant response rating
[9] = postemergence, 10 days, visual injury, 0 to 100 scale (0 no effect, 100 complete control), read-out: Plant response rating, Blackgrass
[10] = read-out: Goosegrass plant response rating
[11] = visual injury, read-out: Plant response rating, Goosegrass
[12] = read-out: Foxtail, Giant plant response rating
[13] = visual injury, read-out: Plant response rating, Foxtail, Giant
[14] = 0 to 100 scale (0 no effect, 100 complete control), 10 days

| SMILES | pest or weed control at 125 g/ha (pigweed, palmer [1]; [7]) [%] | pest or weed control at 125 g/ha (blackgrass [2]; [8]) [%] | pest or weed control at 500 g/ha (blackgrass [2]; [9]) [%] | pest or weed control at 250 g/ha (ducksalad) [%] | pest or weed control at 125 g/ha (goosegrass; [10]) [%] | pest or weed control at 500 g/ha (goosegrass; [11]) [%] | pest or weed control at 125 g/ha (ryegrass, Italian; [7]) [%] | plant injury at 125 g/ha (soybean; [7]) [%] | plant injury at 125 g/ha (corn; 125 g ai/ha) [%] | Corn plant response rating (crop injury, 0 = no effect, 100 = complete kill) at 500 g/ha (corn; visual injury) [%] | pest or weed control at 125 g/ha (ragweed [3]; [7]) [%] | pest or weed control at 125 g/ha (oat, wild) [%] | pest or weed control at 500 g/ha (oat, wild) [%] | plant injury at 125 g/ha (wheat) [%] | plant injury at 500 g/ha (wheat) [%] | pest or weed control at 125 g/ha (foxtail, giant; [12]) [%] | pest or weed control at 500 g/ha (foxtail, giant; [13]) [%] | pest or weed control at 500 g/ha (ragweed [4]) [%] | pest or weed control at 500 g/ha (pigweed, palmer [5]) [%] | pest or weed control at 125 g/ha (blackgrass [6]; [7]) [%] | also measured |
| --- | --- | --- | --- | --- | --- | --- | --- | --- | --- | --- | --- | --- | --- | --- | --- | --- | --- | --- | --- | --- | --- |
| Cc1cccc2c1O[C@@H](C)CN2C(=O)c1cccc(-n2cnn(C)c2=O)c1 [Compound 117, 4-[3-[[(2S)-2,3-Dihydro-2,8-dimethyl-4H-1,4-benzoxazin-4-yl]carbonyl]phenyl]-2,4-dihydro-2-methyl-3H-1,2,4-triazol-3-one] | 20 | 50 | 90 | 0 | 30 | 70 | 40 | 30 | 0 | 50 | 0 | 10 | 40 | 10 | 40 | 20 | 70 | 0 | 30 | 30 | pest or weed control at 500 g/ha (pigweed, palmer [1]; [7]): 80%; pest or weed control at 500 g/ha (ryegrass, Italian; [7]): 100%; plant injury at 500 g/ha (soybean; [7]): 70%; pest or weed control at 500 g/ha (ragweed [3]; [7]): 40%; pest or weed control at 125 g/ha (ragweed [4]): 0%; pest or weed control at 125 g/ha (pigweed, palmer [5]): 10%; pest or weed control at 500 g/ha (blackgrass [6]; [7]): 90% |
| Cc1ccc(-n2cnc(C(C)C)n2)cc1C(=O)N1C[C@H](C)Oc2c(Cl)cccc21 [Compound 73, [(2S)-8-Chloro-2,3-dihydro-2-methyl-4H-1,4-benzoxazin-4-yl][2-methyl-5-[3-(1-methylethyl)-1H-1,2,4-triazol-1-yl]phenyl]methanone] | 100 |  |  | 70 |  | 60 | 90 | 60 |  | 70 | 30 |  | 80 |  | 80 |  | 90 | 80 | 90 | 70 | pest or weed control at 500 g/ha (pigweed, palmer [1]; [14]): 100%; pest or weed control at 125 g/ha (blackgrass [2]; [9]): 90%; pest or weed control at 500 g/ha (blackgrass [2]; Postemergence, 0 to 100 scale, read-out: Plant response rating, Blackgrass): 90%; pest or weed control at 125 g/ha (goosegrass; [11]): 20%; pest or weed control at 500 g/ha (ryegrass, Italian; [14]): 100%; plant injury at 500 g/ha (soybean; [14]): 100%; Corn plant response rating (crop injury, 0 = no effect, 100 = complete kill) at 125 g/ha (corn; 125 g ai/ha, visual injury): 70%; pest or weed control at 500 g/ha (ragweed [3]; [14]): 90%; pest or weed control at 125 g/ha (foxtail, giant; [13]): 80%; pest or weed control at 500 g/ha (blackgrass [6]; [14]): 90% |
| C[C@H]1CN(C(=O)c2cccc(-n3cnc(C4CCC4)n3)c2)c2cccc(Cl)c2O1 [Compound 93, [(2S)-8-Chloro-2,3-dihydro-2-methyl-4H-1,4-benzoxazin-4-yl][3-(3-cyclobutyl-1H-1,2,4-triazol-1-yl)phenyl]methanone] | 90 | 70 | 90 | 0 | 20 | 70 | 90 | 30 | 60 | 90 | 0 | 20 | 70 | 20 | 20 | 60 | 90 | 50 | 100 | 80 | pest or weed control at 500 g/ha (pigweed, palmer [1]; [14]): 100%; pest or weed control at 500 g/ha (ryegrass, Italian; [14]): 100%; plant injury at 500 g/ha (soybean; [14]): 30%; pest or weed control at 500 g/ha (ragweed [3]; [14]): 0%; pest or weed control at 125 g/ha (ragweed [4]): 50%; pest or weed control at 125 g/ha (pigweed, palmer [5]): 90%; pest or weed control at 500 g/ha (blackgrass [6]; [14]): 90% |
